pIC50: −log10 of the molar value.
Key:
Experiment in all cases: In Vitro Kinase Assay
Conditions in all cases: pH 7
[1] = target: Epidermal growth factor receptor (Homo sapiens, UniProt P00533)
Method: (§1) Inhibition of kinase activity against a variety of recombinant kinases [FLT3, FLT3 D835Y, anaplastic lymphoma kinase (ALK), insulin receptor, and epidermal growthfactor receptor (EGFR)] was measured using homogeneous time-resolved fluorescence (HTRF) assays [Choi et al., Bioorg. Med. Chem. Lett., 20:2033-2037]. Assays consist of enzymes mixed with serially diluted compounds and peptide substrates in a kinase reaction buffer (250 mM HEPES (pH 7.0), 0.5 mM orthovanadate, 0.05% bovine serum albumin, 0.1% NaN3). Following the addition of reagents for detection, the TR-FRET signal was measured using an EnVision multi-label reader (Perkin Elmer, Waltham, MA).

Insulin receptor = Insulin receptor (Homo sapiens, UniProt P06213)
Chain of Insulin receptor (P06213 28-758 limits assumed): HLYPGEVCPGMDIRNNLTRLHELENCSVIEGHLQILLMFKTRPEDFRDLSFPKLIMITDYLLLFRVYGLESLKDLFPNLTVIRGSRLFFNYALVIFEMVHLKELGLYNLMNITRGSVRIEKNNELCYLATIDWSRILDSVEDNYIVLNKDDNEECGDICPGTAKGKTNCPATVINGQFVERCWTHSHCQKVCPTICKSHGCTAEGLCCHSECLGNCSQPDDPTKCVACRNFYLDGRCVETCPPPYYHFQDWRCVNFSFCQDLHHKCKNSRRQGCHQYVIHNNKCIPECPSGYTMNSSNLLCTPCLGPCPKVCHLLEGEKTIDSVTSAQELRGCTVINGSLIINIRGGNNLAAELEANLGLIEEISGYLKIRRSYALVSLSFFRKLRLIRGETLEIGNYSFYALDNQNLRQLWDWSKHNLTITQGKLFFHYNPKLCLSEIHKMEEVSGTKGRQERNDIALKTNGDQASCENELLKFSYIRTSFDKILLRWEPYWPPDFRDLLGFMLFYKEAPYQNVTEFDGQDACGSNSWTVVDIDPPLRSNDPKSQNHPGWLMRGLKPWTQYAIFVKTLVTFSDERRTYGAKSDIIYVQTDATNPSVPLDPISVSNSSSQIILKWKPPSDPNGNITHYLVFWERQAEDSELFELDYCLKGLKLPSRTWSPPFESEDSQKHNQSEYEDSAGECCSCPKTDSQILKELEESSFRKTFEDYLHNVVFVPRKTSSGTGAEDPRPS
Chain of Insulin receptor (P06213 763-1382 limits assumed): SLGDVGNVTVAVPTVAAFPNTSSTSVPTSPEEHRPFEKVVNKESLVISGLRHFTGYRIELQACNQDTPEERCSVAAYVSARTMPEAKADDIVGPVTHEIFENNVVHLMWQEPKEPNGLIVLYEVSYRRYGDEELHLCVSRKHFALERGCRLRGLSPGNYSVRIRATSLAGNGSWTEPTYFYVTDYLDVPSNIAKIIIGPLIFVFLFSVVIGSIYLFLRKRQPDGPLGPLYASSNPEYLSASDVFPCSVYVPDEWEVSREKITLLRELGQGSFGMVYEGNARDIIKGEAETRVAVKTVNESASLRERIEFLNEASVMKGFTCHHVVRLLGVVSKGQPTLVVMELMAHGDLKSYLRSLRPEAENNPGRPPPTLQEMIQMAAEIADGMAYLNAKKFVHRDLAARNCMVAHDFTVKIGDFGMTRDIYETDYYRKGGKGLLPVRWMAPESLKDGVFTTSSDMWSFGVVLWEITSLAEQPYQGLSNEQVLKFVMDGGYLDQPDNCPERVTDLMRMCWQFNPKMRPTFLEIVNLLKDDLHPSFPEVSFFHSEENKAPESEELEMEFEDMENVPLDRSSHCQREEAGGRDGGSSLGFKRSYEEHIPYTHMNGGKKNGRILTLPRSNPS
Method: as §1

[2] = target: ALK tyrosine kinase receptor (Homo sapiens, UniProt Q9UM73)
Chain of ALK tyrosine kinase receptor (Q9UM73 whole entry): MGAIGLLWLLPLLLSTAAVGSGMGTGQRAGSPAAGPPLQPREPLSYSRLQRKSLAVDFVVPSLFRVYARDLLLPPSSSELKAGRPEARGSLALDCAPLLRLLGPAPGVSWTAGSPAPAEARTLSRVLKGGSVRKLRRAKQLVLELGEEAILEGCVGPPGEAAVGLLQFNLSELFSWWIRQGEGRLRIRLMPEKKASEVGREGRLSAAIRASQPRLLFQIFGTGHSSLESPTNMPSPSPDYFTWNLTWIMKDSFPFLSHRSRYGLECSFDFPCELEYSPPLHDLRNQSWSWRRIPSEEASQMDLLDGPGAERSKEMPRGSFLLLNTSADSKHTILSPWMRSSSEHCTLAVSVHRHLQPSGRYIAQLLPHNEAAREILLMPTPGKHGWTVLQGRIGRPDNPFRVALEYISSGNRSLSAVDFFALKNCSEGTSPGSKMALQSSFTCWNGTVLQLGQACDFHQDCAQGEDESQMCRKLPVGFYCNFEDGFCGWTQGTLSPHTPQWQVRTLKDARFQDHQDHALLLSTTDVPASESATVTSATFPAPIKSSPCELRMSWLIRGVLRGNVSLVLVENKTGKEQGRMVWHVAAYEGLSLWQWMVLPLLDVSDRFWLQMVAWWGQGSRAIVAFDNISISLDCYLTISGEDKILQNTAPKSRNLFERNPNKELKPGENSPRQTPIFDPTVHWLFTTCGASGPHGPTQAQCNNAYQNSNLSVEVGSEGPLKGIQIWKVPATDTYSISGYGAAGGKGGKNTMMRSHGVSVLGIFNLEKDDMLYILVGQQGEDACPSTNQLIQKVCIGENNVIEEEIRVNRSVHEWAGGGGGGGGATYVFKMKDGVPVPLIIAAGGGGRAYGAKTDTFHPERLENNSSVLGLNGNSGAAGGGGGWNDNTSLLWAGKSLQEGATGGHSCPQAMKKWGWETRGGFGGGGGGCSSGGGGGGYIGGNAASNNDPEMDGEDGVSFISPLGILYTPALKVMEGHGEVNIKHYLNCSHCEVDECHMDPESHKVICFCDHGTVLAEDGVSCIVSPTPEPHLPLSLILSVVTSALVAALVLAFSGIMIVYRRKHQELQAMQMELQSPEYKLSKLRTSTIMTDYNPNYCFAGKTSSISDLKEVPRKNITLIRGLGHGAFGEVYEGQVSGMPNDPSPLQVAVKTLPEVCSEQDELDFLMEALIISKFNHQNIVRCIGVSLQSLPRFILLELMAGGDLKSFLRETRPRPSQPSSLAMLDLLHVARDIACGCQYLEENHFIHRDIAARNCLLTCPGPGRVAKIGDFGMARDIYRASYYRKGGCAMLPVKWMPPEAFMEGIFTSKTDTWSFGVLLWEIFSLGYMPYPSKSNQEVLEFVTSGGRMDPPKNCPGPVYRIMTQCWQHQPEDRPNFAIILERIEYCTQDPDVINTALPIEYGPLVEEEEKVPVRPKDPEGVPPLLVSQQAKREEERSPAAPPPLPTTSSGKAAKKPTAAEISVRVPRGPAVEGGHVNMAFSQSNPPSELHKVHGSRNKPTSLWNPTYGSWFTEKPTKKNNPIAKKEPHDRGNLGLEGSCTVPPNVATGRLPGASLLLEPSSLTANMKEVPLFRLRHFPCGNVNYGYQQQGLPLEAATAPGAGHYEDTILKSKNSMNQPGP
Method: as §1

Chain of Epidermal growth factor receptor (P00533 whole entry): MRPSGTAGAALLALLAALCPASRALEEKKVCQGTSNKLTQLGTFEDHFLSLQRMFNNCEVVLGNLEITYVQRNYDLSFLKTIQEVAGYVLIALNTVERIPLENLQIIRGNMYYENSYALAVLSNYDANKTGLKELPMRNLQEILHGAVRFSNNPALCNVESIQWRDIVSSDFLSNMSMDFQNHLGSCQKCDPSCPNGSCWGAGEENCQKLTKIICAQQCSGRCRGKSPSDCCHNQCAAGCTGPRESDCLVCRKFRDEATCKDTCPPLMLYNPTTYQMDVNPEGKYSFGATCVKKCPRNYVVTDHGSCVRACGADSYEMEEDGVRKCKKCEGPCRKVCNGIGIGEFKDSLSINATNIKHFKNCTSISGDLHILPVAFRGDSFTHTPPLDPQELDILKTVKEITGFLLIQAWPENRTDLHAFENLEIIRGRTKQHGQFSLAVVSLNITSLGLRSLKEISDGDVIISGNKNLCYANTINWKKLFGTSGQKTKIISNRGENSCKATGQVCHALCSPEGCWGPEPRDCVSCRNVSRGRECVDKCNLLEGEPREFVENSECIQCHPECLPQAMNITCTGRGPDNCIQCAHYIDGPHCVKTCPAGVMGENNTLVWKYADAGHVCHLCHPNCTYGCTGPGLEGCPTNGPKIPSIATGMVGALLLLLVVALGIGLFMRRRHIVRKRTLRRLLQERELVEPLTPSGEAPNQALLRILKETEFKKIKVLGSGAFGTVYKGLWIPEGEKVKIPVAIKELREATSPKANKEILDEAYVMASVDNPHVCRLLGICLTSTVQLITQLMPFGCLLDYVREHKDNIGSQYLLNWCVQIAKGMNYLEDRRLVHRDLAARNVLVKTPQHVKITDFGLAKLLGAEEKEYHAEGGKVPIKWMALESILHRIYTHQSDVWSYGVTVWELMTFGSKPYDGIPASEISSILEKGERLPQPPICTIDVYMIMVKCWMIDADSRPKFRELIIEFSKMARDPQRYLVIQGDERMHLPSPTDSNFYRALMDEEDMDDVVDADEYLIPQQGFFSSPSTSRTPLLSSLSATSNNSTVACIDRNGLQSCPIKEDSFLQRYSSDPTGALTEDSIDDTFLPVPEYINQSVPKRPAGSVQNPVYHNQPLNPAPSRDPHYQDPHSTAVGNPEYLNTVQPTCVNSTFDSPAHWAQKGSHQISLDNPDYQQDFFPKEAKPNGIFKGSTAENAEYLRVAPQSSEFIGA

pIC50 [1]: < 5.00
pIC50 (Insulin receptor): < 5.00
pIC50 [2]: 6.09
Structure (SMILES): O=c1c2cc(O)c(O)cc2oc2cc(O)c(C3O[C@H](CO)[C@@H](O)[C@H](O)[C@H]3O)c(O)c12 (stereo partly drawn) [Mangiferin]
